Results on 17 molecules are retold here after ChEMBL document CHEMBL1143964, “Novel pyrazolo[1,5-a]pyrimidines as c-Src kinase inhibitors that reduce IKr channel blockade” (Bioorg Med Chem, 2008).

For data set [1], the target named is T1, Proto-oncogene tyrosine-protein kinase Src (Homo sapiens, UniProt P12931). The data set is described as follows: Inhibition of human cSrc in COS7 cells by ELISA. The format is cell-based, COS-7. In general terms: ELISA stands for enzyme-linked immunosorbent assay.
Data set [2] in a line: Drug level in Sprague-Dawley rat brain at 3 mg/kg, iv after 1 hr. It counts as ADME, organism-based. More on the design: dose 3 mg/kg, route intravenous. The settings on record: read-out: Drug uptake.
Data set [3] addresses T1, Proto-oncogene tyrosine-protein kinase Src. The data set is described as follows: Inhibition of human cSrc.
Data set [4] is described as follows: Drug level in Sprague-Dawley rat plasma at 3 mg/kg, iv after 1 hr. More on the design: dose 3 mg/kg, route intravenous. The format is ADME, organism-based.
Data set [5] is described as follows: Ratio of drug level in brain to plasma in Sprague-Dawley rat at 3 mg/kg, iv after 1 hr. The format is ADME, organism-based. More on the design: dose 3 mg/kg, route intravenous. Conditions: read-out: BPR.
For data set [6], the target named is T2, IKr channel (Oryctolagus cuniculus, UniProt Q28705). In words: Inhibition of Ikr channel in rabbit ventricular myocytes at 30 uM.
Data set [7] concerns the target T2, IKr channel. The data set is described as follows: Inhibition of Ikr channel in rabbit ventricular myocytes at 10 uM. The format is cell-based, Ventricular myocyte.
Data set [8] is described as follows: Clearance in Sprague-Dawley rat middle cerebral artery occlusion model at 3 mg/kg, iv. The format is ADME, organism-based. More on the design: dose 3 mg/kg, route intravenous. Conditions: in vivo.
Data set [9] is described as follows: Half life in Sprague-Dawley rat middle cerebral artery occlusion model at 3 mg/kg, iv. More on the design: dose 3 mg/kg, route intravenous. The settings on record: in vivo. The format is ADME, organism-based.
Data set [10] can be described thus: Volume of distribution at steady state in Sprague-Dawley rat middle cerebral artery occlusion model at 3 mg/kg, iv. It counts as ADME, organism-based. More on the design: dose 3 mg/kg, route intravenous. The settings on record: in vivo, read-out: Vdss.
In data set [11] the target is Protein kinase C beta type (Homo sapiens, UniProt P05771). The data set is described as follows: Inhibition of PKCbeta.
In data set [12] the target is T3, Tyrosine-protein kinase ZAP-70 (Homo sapiens, UniProt P43403).
T3 sequence (P43403 whole entry): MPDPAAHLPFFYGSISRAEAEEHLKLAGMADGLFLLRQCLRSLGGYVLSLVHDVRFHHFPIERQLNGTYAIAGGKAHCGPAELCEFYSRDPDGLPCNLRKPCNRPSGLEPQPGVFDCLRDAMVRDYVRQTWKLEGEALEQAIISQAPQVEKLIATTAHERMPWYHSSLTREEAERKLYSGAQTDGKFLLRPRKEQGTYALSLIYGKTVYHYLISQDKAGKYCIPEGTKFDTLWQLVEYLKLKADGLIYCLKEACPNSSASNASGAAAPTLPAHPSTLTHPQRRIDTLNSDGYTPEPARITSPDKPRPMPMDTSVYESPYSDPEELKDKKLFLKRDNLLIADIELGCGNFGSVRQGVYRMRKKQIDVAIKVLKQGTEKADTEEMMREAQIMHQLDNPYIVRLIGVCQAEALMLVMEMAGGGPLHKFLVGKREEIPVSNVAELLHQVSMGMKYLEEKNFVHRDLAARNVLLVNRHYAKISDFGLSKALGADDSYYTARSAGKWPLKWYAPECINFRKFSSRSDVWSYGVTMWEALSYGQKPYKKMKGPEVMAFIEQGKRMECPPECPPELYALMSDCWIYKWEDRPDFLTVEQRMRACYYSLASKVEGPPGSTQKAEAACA
In words: Inhibition of ZAP.

A short description of data set [13]: AUC (0 to infinity) in Sprague-Dawley rat middle cerebral artery occlusion model at 3 mg/kg, iv. It counts as ADME, organism-based. More on the design: time infinity, dose 3 mg/kg, route intravenous. Conditions: in vivo.
The target of data set [14] is Tyrosine-protein kinase Lck (Homo sapiens, UniProt P06239).
For data set [15], the target named is Epidermal growth factor receptor (Homo sapiens, UniProt P00533).
Data set [16] has as its target Tyrosine-protein kinase SYK (Homo sapiens, UniProt P43405). The data set is described as follows: Inhibition of Syk.
Data set [17] addresses Vascular endothelial growth factor receptor 2 (Homo sapiens, UniProt P35968). The data set is described as follows: Inhibition of KDR.

For orientation: IC50 means the concentration at which inhibition is half-maximal. For orientation: inhibition means the drop in the measured response relative to a control, in per cent. Low values mean a weak effect, high ones a strong effect. For orientation: clearance means the rate of elimination divided by the concentration. What is called half-life is the time in which the quantity being followed falls by half. High values mean slow decline, low ones rapid decline. By AUC(0-inf) is commonly meant total exposure, with the tail of the curve extrapolated. Low readings indicate low exposure, high ones high exposure.

T1 sequence (P12931 2-536 limits assumed): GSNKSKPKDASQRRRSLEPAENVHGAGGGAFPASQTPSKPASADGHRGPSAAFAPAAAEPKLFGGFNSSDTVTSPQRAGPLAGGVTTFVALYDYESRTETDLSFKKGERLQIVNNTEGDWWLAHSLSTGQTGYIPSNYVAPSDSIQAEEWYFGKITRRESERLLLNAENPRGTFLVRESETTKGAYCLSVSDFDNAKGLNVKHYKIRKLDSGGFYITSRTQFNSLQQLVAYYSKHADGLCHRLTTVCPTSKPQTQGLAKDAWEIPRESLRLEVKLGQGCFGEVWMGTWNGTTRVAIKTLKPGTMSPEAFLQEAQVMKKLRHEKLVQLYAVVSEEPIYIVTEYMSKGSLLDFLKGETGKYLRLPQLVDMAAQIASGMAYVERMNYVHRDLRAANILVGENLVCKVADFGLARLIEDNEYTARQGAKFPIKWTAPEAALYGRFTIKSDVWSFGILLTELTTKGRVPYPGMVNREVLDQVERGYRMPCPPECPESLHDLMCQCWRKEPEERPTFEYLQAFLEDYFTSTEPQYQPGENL
T2 sequence (Q28705 whole entry): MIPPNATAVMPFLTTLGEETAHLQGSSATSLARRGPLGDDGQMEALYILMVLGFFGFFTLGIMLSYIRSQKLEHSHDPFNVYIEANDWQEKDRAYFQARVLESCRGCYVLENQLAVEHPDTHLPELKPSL
Protein kinase C beta type, sequence (P05771 whole entry): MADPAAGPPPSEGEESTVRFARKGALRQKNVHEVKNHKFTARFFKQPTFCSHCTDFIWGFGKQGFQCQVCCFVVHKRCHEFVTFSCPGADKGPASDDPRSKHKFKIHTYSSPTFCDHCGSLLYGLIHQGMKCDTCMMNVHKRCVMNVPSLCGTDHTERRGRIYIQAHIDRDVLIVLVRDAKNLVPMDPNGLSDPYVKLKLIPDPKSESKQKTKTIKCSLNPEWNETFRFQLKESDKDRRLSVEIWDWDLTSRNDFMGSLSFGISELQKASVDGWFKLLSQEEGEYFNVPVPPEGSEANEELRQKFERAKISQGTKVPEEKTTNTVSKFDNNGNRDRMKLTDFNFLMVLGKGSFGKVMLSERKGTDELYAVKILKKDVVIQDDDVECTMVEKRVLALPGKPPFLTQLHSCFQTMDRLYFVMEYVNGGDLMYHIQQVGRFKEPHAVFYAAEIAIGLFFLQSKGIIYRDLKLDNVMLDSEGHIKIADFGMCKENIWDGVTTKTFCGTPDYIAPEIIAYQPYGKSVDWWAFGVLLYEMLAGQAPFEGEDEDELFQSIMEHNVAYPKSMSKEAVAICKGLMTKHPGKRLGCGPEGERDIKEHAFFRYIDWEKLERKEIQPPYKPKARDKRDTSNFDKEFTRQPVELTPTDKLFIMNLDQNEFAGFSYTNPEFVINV
Epidermal growth factor receptor, sequence (P00533 whole entry): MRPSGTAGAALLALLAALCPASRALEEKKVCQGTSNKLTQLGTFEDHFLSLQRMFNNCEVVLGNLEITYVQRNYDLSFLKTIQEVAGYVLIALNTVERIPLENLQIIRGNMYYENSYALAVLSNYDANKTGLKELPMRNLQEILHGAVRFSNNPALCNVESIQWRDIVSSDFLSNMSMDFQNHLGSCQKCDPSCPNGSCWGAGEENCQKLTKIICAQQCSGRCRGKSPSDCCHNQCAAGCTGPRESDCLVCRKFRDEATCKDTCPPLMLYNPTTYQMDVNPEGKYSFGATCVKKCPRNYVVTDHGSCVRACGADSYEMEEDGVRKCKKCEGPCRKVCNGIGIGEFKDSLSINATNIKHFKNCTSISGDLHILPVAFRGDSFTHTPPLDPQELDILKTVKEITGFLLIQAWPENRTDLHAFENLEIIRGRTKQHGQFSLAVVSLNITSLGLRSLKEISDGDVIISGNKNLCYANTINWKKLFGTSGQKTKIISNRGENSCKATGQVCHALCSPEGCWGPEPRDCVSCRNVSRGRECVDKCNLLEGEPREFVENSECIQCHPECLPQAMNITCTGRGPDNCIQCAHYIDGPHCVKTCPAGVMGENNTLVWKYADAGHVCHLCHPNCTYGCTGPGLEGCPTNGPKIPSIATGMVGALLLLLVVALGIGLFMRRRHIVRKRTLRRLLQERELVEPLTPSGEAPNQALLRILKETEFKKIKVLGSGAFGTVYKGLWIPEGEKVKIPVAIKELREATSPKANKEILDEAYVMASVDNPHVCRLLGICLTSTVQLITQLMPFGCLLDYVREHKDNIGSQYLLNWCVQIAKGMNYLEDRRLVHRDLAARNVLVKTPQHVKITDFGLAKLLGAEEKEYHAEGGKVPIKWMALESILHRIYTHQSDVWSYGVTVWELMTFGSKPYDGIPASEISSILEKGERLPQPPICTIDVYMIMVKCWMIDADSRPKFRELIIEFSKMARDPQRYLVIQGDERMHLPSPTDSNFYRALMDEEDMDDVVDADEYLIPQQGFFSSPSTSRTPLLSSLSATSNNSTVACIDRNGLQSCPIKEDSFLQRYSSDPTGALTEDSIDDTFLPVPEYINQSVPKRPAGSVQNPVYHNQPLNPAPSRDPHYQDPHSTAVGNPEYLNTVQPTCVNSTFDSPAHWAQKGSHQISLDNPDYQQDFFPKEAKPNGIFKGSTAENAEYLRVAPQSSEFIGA
Vascular endothelial growth factor receptor 2, sequence (P35968 whole entry): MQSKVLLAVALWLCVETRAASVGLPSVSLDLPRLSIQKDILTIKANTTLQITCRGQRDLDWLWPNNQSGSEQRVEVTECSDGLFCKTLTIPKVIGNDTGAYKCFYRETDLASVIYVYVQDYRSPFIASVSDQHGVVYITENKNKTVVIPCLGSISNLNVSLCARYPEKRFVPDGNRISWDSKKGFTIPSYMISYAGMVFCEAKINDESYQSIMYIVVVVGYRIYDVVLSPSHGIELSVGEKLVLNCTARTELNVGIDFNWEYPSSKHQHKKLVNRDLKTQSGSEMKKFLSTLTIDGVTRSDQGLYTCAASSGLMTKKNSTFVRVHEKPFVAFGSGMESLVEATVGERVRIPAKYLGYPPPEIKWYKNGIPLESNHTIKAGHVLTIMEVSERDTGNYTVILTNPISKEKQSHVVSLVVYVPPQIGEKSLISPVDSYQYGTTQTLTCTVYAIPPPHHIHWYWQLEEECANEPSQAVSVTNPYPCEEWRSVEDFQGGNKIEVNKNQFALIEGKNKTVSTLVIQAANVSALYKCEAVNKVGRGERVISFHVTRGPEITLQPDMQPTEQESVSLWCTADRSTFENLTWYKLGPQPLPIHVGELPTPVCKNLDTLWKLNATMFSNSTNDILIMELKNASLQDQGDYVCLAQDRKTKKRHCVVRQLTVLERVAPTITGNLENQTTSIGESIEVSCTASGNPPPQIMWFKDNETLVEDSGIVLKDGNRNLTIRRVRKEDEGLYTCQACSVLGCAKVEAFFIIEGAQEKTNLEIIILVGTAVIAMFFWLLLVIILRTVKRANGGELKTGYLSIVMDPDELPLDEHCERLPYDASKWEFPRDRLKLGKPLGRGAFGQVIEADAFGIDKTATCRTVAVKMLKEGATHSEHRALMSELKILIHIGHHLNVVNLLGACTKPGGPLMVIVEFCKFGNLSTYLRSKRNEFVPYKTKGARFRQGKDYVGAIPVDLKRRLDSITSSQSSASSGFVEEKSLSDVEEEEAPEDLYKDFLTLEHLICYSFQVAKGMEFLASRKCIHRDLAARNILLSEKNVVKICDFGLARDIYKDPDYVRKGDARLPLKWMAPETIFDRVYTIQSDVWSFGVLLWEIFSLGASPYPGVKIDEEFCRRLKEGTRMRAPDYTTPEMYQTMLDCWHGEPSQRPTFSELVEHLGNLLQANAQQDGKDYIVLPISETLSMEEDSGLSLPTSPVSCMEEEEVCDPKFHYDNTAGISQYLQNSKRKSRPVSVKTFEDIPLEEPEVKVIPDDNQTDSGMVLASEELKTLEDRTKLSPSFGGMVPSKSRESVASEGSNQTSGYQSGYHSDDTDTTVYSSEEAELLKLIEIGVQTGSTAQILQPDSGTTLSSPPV
Tyrosine-protein kinase Lck, sequence (P06239 whole entry): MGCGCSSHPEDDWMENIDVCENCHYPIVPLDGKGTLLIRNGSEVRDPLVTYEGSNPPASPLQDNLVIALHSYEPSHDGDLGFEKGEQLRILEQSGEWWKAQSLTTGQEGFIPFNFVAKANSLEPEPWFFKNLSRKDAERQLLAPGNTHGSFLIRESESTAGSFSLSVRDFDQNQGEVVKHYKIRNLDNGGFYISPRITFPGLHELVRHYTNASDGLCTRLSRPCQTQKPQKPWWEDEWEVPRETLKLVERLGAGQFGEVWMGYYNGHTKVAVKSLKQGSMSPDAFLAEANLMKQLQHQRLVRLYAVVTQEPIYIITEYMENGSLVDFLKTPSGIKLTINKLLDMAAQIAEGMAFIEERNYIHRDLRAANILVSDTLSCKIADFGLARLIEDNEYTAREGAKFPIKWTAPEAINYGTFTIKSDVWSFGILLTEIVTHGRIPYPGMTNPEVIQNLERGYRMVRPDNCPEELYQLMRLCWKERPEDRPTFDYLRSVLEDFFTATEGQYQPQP

Regarding `COc1cc(Nc2nn3c(N[C@@H](CO)C(C)C)cc(C4CC4)nc3c2C(N)=O)cc(OC)c1`, the IC50 is 100 nM in data set [1] and 8 nM in [3]. For the same molecule, the concentration at 1 h was found to be 126 ng/g in data set [2] and 346 ng/mL in data set [4]. The Kp at 1 h in data set [5] worked out at 0.4.
The molecule `COc1cc(Nc2nn3c(N[C@@H](CO)C(C)C)cc(-c4ccccc4)nc3c2C(N)=O)cc(OC)c1` had an IC50 in data set [3] of 68 nM. On IKr channel [6], this molecule registered an inhibition at 30 µM of 12.4%.
On IKr channel [7], `COc1cc(Nc2nn3c(NC[C@@H](C)N)cc(C)nc3c2C(N)=O)cc(OC)c1` showed an inhibition at 10 µM of 47.9%. The same molecule yielded a concentration for half-maximal inhibition (IC50) in data set [3] of 408 nM.
On to `COc1cc(Nc2nn3c(NC[C@H](C)N)cc(C)nc3c2C(N)=O)cc(OC)c1`, for which the inhibition at 10 µM against IKr channel [7] was found to be 99.1%. The molecule also registered an IC50 in [3] of 2990 nM.
Turning to `COc1cc(Nc2nn3c(NCC(C)(C)N)cc(C)nc3c2C(N)=O)cc(OC)c1`, the values for the concentration for half-maximal inhibition (IC50) in data set [1] and in data set [3] were 900 nM and 175 nM, respectively. Besides, the inhibition at 10 µM at IKr channel [7] worked out at 90.7%.
Molecule `COc1cc(Nc2nn3c(N[C@@H](CO)C(C)C)cc(C)nc3c2C(N)=O)cc(OC)c1` showed an IC50 in data set [3] of 432 nM.
Still for that read-out and setting: under `COc1cc(Nc2nn3c(NC[C@@H](C)O)cc(C)nc3c2C(N)=O)cc(OC)c1` stands 6690 nM; under `COc1cc(Nc2nn3c(N[C@@H](CO)Cc4ccccc4)cc(C4CC4)nc3c2C(N)=O)cc(OC)c1`, 12 nM.
In the case of `COc1cc(Nc2nn3c(N[C@@H](CO)C(C)C)cc(C(C)C)nc3c2C(N)=O)cc(OC)c1`, it took 41 nM to reach half-maximal inhibition in data set [3] (IC50). The inhibition at 30 µM against IKr channel [6] amounted to 14.6%.
For the molecule `COc1cc(Nc2nn3c(N[C@H](CO)Cc4c[nH]c5ccccc45)cc(C4CC4)nc3c2C(N)=O)cc(OC)c1`, the half-inhibitory concentration (IC50) in [1] amounted to 500 nM; in data set [3], 5 nM. The concentration at 1 h in data set [2] was found to be 89 ng/g; in data set [4], 80 ng/mL. For the same molecule, the Kp at 1 h in [5] stood at 1.1. Besides, the inhibition at 30 µM against IKr channel [6] is 5.4%.
For the molecule `COc1cc(Nc2nn3c(N[C@H](CO)Cc4cccnc4)cc(C4CC4)nc3c2C(N)=O)cc(OC)c1`, the half-inhibitory concentration (IC50) in [1] was 100 nM; in [3] it was 5 nM. The concentration at 1 h in data set [4] is 81 ng/mL.
As for `COc1cc(Nc2nn3c(NC[C@H](C)O)cc(C)nc3c2C(N)=O)cc(OC)c1`, the IC50 in [3] came to 9200 nM.
The same measure, in the same setting: under `COc1cc(Nc2nn3c(N[C@@H](C)CO)cc(C)nc3c2C(N)=O)cc(OC)c1` stands 3480 nM; under `COc1cc(Nc2nn3c(N4CCC[C@H]4CO)cc(C4CC4)nc3c2C(N)=O)cc(OC)c1`, 25 nM.
`COc1cc(Nc2nn3c(N[C@H](CO)Cc4ccccc4)cc(C4CC4)nc3c2C(N)=O)cc(OC)c1` yielded a clearance in [8] of 25 mL/min/kg. Besides, the IC50 was 100 nM in [1]; over 10000 nM in data set [11]; over 10000 nM in [12]; 3 nM in data set [3]; 7 nM in data set [14]; 2400 nM in data set [15]. Besides, the concentration for half-maximal inhibition (IC50) in data set [16] and in data set [17] was over 10000 nM throughout. The molecule further returned a half-life in [9] of 22 min. The concentration at 1 h amounted to 256 ng/g in data set [2] and 273 ng/mL in data set [4]. Also, the Vd in data set [10] amounted to 0.53 L/kg. The AUC(0-inf) in [13] stood at 1990 ng·h/mL. For the same molecule, in data set [5], the Kp at 1 h came to 0.9. The molecule further showed an inhibition at 30 µM against IKr channel [6] of 23.4%.
With `COc1cc(Nc2nn3c(N[C@H](CO)C(C)C)cc(C)nc3c2C(N)=O)cc(OC)c1`, in [3], the IC50 was found to be 1210 nM. That is a single-digit micromolar value.
In data set [3], `COc1cc(Nc2nn3c(N4CCC[C@@H]4CO)cc(C4CC4)nc3c2C(N)=O)cc(OC)c1` yielded an IC50 of 9 nM. On IKr channel [6], this molecule had an inhibition at 30 µM of 14.2%.
